The target of experiment [1] is T1, Thromboxane A2 receptor (Homo sapiens) (UniProt P21731).
T1 sequence (whole entry): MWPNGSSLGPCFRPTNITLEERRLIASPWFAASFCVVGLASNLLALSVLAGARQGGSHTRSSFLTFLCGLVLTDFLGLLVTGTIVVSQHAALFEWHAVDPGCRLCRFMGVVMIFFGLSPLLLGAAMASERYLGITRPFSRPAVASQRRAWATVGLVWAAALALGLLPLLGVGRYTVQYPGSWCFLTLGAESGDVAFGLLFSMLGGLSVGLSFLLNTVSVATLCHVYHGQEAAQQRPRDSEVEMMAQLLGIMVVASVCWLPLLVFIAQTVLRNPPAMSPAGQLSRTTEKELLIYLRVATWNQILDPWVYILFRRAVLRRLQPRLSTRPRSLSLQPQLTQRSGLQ
Put plainly: Ability to inhibit the U-46,619 (TXA2 agonist,3uM) induced aggregation in human platelets; range (5-20 uM). It counts as functional.

The nature of experiment [2]: Ability to inhibit ADP (10 uM) induced aggregation in human platelet rich plasma (PRP) relative to 13-azaprostanoic acid. Format: functional.
Experiment [3] is described as follows: Ability to inhibit U-46,619 (0.5 uM) induced aggregation in human platelet rich plasma (PRP) relative to 13-azaprostanoic acid. Format: functional.
The species entered for experiment [4] is Homo sapiens. Description: Inhibition of [3H]U-46619 binding in dark incubated platelets. It counts as functional.
For experiment [5], the target named is T1, Thromboxane A2 receptor (Homo sapiens). Put plainly: Ability to inhibit the U-46,619 (TXA2 agonist, 3 uM). Format: functional.
The target is the same in experiment [6]. Description: Ability to inhibit the U-46,619 (TXA2 agonist,3 uM) induced aggregation in human platelets was determined. It counts as functional.
Experiment [7] shares this target. Put plainly: Inhibition of UV-irridiated platelets relative to dark incubated platelets after irreversible inhibition of U-46,619 binding after photoactivation (p<0.02). To be noted: concentration not given here.

SMILES strings stand for the structures.

`O=C(O)CCCCCCC1CCCC1NCCCOc1ccccc1` (stereo not given) showed an ED50 in experiment [1] of 20 µM.
`O=C(O)CCCCCCC1CCCC1NCCCc1ccc([N+](=O)[O-])cc1` (cis isomer) yielded an ED50 in experiment [1] of 20 µM.
For the compound `[N-]=[N+]=Nc1ccc(CCCNC2CCCC2CCCCCCC(=O)O)cc1` (cis isomer), the ED50 in experiment [1] is 20 µM.
Same read-out and setting: under `O=C(O)CCCCCCC1CCCC1NCCCOc1ccc([N+](=O)[O-])cc1` (stereo in doubt) stands 20 µM.
On to `[N-]=[N+]=Nc1ccc(OCCCNC2CCCC2CCCCCCC(=O)O)cc1` (trans isomer), for which the Inhibition is reported as 50% in experiment [2] and 38% in experiment [3]. The ED50 in experiment [1] was 20 µM.
Regarding `[N-]=[N+]=Nc1ccc(CCCNC2CCCC2CCCCCCC(=O)O)cc1` (trans isomer) [listing 1 of 2 here], the results for the Inhibition in experiment [2] and in experiment [3] were 19% and 63%, respectively.
In the case of `[N-]=[N+]=Nc1ccc(CCCNC2CCCC2CCCCCCC(=O)O)cc1[127I]` (trans isomer), the Inhibition worked out at 15% in experiment [2] and 81% in experiment [3]. This compound had a Ki in experiment [4] of 0.29 µM.
`Nc1ccc(CCCNC2CCCC2CCCCCCC(=O)O)cc1` (trans isomer) returned an ED50 in experiment [1] of 20 µM.
With `Nc1ccc(OCCCNC2CCCC2CCCCCCC(=O)O)cc1` (trans isomer), in experiment [1], the ED50 turned out to be 20 µM.
Same read-out and setting: the value for `O=C(O)CCCCCCC1CCCC1NCCCOc1ccc([N+](=O)[O-])cc1` (trans isomer) was 20 µM.
In turn, `O=C(O)CCCCCCC1CCCC1NCCCOc1ccccc1` (trans isomer) had an ED50 in experiment [5] of 20 µM.
Consider `O=C(O)CCCCCCC1CCCC1NCCCc1ccc([N+](=O)[O-])cc1` (trans isomer), for which the ED50 in experiment [1] worked out at 20 µM.
On to `[N-]=[N+]=Nc1ccc(CCCNC2CCCC2CCCCCCC(=O)O)cc1` (trans isomer) [listing 2 of 2 here], for which the ED50 in experiment [1] is 20 µM.
Consider `[N-]=[N+]=Nc1ccc(CCCNC2CCCC2CCCCCCC(=O)O)cc1I` (trans isomer), for which the ED50 in experiment [6] worked out at 2 µM. This compound came in with an inhibition in experiment [7] of 38%.

Broadly, the Inhibition is the change of the read-out against control, counted positive when it falls. Read a low Inhibition as a response near the control. A word on the Ki: it is the dissociation constant of the complex between target and ligand, obtained from inhibition or displacement. Low values mean tighter binding, high ones weaker binding. In general, inhibition refers to the share of the control response that was lost under treatment. A lower inhibition goes with a weak effect.

These data come from ChEMBL document CHEMBL1123745, “Preparation and biological evaluation of a potential photoaffinity label for the prostaglandin H2/thromboxane A2 receptor” (J Med Chem, 1987).
